Measured values: US8304418B2, “Pyrazolopyrimidinone kinase inhibitor” (Agennix AG, priority 2007, dated 2012)
Values after ≈ are worked out from the molar mass of the structure shown. Values joined by “and” are separate entries in the source; they are usually repeats but may differ in a detail not shown here. Equal entries are not always repeated. Where two headings read alike, the source gives them in different places.

What was measured:
[1] = test system: human A2780 ovarian tumor cells
Experimental: Compound P (as hydrochloric acid salt) was formulated in 30% PEG300/70% water, and Compound I (as hydrochloric acid salt) was formulated in 20% PEG300/80% D5W (5% dextrose water) and administered by oral gavage twice every day for 10 days (bid×10), while the Cytoxan control which was administered i.p. in saline every two days over a period of 10 days (q2 d×5): […]

[2] = PAMPA permeability assay at pH 7.4; format: in vitro ADME
Experimental: (§1) The assays used for determining the properties of the kinase inhibitors were performed in accordance with standard procedures well known to those skilled in the art. For example, assays for determining inhibitory activity on CDKs or in cellular assays are described in WO 00/218962, WO 2005/026129, and WO 2005/063765. Solubility assays at pH 7.4 were essentially performed as described by Avdeef, A. in Pharmacokinetic Optimization in Drug Research; Testa, B.; van de Waterbeemd, H.; Folkers, G.; Guy, R. Eds.; Wiley-VHC: Zurich, 2001; pp 305-326. PAMPA permeability assays at pH 7.4 were essentially performed as described in Kansy et al., J. Med. Chem. 41: 1007-10, 1998.

[3] = Solubility assay at pH 7.4; format: physicochemical; settings: pH 7.4, aqueous buffer
Experimental: as §1

[4] = test system: cell lines A2780, HCT-116, HT-29, HepG2, NCI/ADR-RES, OVCAR3, H460, IMR-90, T98G, A549 among others; assay: Inhibition of proliferation in a set of cancer-model cell lines; format: cell-based; settings: units (μM and nM) printed inside the value, read-out: IC50 values, inhibition of proliferation (range over cell lines)
Experimental: as §1

[5] = test system: human A2780 ovarian tumor cells; remark: listed apart in the source
Experimental: (§4) Xenograft Tumor-Models: 100 athymic nu/nu female mice (6-8 weeks old) from CRL were allowed to acclimate for 4 days. […] The 3rd passage of cells with approximate 90% confluence was used for these experiments. Briefly, on Day 0, mice were inoculated with 0.1 ml (total 5×10^6 cells) of the respective cell-type as a cell suspension (50×10^6 cells/ml) by subcutaneous injection into the fat pad area near the mammary gland under light anesthesia. When the average tumor weight in all mice reached over 100 mg (day 10), 80 animals with an average tumor size of 130 mg were selected and were randomly divided into 8 groups.
(§5) A 20 G gavage needle was used for the oral treatment.
(§6) Tumor growth and body weight were monitored and recorded three times a week. Tumors were measured by determining the length and width of the tumor with a digital caliper. Tumor weight was estimated using the following formula: Tumor Weight (mg)=(w^2×1)×0.52 where w=width and l=length in mm of the tumor.
(§7) Experimental treatment may cause partial regression (PR) or complete regression (CR) of tumors. PR is defined when the tumor size is 50% or less than the starting (day 1) size but greater than 0.0 mg for three consecutive measurements during the course of the study. CR occurs when there is no measurable tumor mass for three consecutive measurements. Cures are defined when CR are maintained until the completion of the experiment.
(§8) Mice were sacrificed when their tumors reached the 1000 mm^3 endpoint volume. Treatment efficacy was determined as Log Cell Kill (LCK).
(§9) Toxic deaths are defined as deaths caused by compound treatment and not by advanced disease state. […] Non-tumor related deaths after this point are recorded, but not considered toxic deaths.
(§10) Briefly, the empirical distributions of T and Td were derived from B=1000 realisations of random selection of n individual animals with replacement from the set i=1, . . . , n of the appropriate group of mice containing n evaluable animals, estimating the mean tumor size for such selection of animals for each time-point, and linear regression analysis from a semi-log plot of such averages against time. Dead mice and mice with no measurable tumor size were treated as missing data and were ignored when calculating the average.

H460 NSCLC = settings: for Toxic Mortality: N=10; for Max % TGI (d): day 13
Experimental: as §4, §5, §6, §7, §8, §9, §10

[6] = test system: HCT116 colon carcinoma cells
Experimental: as §4, §5, §6, §7, §8, §9, §10

CDK6 = CDK6 (Homo sapiens, UniProt Q00534); assay: Biochemical CDK6 inhibition assay
Experimental: as §1

[7] = test system: CDK9-specific phosphorylation of RNA polymerase II (RNAPII) on serine 2; assay: In-cell RNAPII phosphorylation (immunoblot); format: cell-based, human; settings: 3 h
Experimental: (§2) The following cancer cell lines were investigated in the course of these studies: A2780 (ovarian), HCT116 (colon), RPMI8226 (myeloma), SKMel28 (melanoma), Colo205 (colorectal), MDA-MB-435 (melanoma), MDA-MB-453 (breast, carcinoma), MDA-MB-468 (breast, adenocarcinoma), A549 (lung), Raji (lymphoma, Burkitt). Cell lines were obtained from public repositories.
CDK9-specific phosphorylation of RNA polymerase II (RNAPII) on Serine 2 (Ser2). Asynchronous cells were treated with an appropriate concentration of test compound or DMSO as a control. After 3 h incubation (37° C./5% CO2) cells were lysed with CLB-1 lysis buffer (Zeptosense, Switzerland), the lysate was cleared by centrifugation (10 min, 13000 rpm, RT) and subjected to SDS-PAGE. Total protein was blotted on PVDF membranes and analyzed using antibodies against S2-phosphorylated RNAPII (H5; Covance) or total RNAPII (N-20; Santa Cruz) as an expression control. Visualization was conducted using secondary Alexa680- or IR800-coupled antibodies (Molecular Probes) against mouse or rabbit Fc tails on the Odyssey-system (Licor). Specific bands were quantified and IC50 values of inhibition of RNAPII phosphorylation were estimated.

[8] = test system: CDK4/6-specific phosphorylation of Rb on serine 780; assay: In-cell Rb phosphorylation (immunoblot); format: cell-based, human; settings: 1 h, read-out: IC50 (uM) - Rb-5 phosphorylation
Excerpt: (§3) This set of assays represents CDKs involved in cell cycle progression (CDK1, 4/6), and the “regulatory CDK” (CDK9) which is involved in transcriptional regulation.
as §2
CDK4/6-specific phosphorylation of Rb on serine 780 (Ser780phos). Asynchronous growing cells were treated with an appropriate concentration of test compound or DMSO for 1 hour. Proteins were extracted using the AllPrep RNA/Protein kit according to the manufacturer's recommendations (Qiagen, Germany). Rb was immunoprecipitated over night using Ab05 antibody (Oncogene Inc.). Proteins were separated by SDS-PAGE, blotted to PVDF membranes and analyzed with antibodies against total (sc-102; Santa Cruz) or Ser780-phosphorylated Rb proteins (Cell Signalling). Visualization and quantification was performed as above.

[9] = test system: CDK1-dependent Eg-5 phosphorylation on threonine 927; assay: In-cell Eg-5 phosphorylation (immunoblot); format: cell-based, human; settings: 1 h
Excerpt: as §3, §2
CDK1-dependent Eg-5 phosphorylation on threonine 927 (Thr927phos). Thr927phos was investigated by arresting cells over night in G2/M phase with 25 ng/ml nocodazole (optimized final concentration) followed by treatment with DMSO as control or an appropriate concentration of test compound for 1 hour. Detached as well as adherent cells were collected and lysed with CLB-1 lysis buffer. the lysate cleared by centrifugation and subjected to SDS-PAGE. The proteins were blotted on PVDF membranes and subsequently analyzed by antibodies against total Eg-5 (Becton Dickinson) and Eg-5 Thr927phos (Bio legend). Visualization and estimation of IC50 was conducted as above.

[10] = 30 [28] mg/kg po bidx10, day 10
[11] = HCT116, 100 [93] mg/kg po qdx10

Sequence of CDK6 (Q00534 whole entry): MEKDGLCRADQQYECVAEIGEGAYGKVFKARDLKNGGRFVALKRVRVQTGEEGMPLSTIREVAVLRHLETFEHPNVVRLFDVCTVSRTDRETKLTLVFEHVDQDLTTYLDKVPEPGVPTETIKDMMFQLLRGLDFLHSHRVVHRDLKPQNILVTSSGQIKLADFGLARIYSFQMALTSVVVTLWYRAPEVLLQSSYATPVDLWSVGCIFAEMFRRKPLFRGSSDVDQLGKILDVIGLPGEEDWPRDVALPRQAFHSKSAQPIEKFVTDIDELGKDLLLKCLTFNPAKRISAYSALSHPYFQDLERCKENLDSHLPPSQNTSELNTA
Sequence of CDK6 (P30281 whole entry partner): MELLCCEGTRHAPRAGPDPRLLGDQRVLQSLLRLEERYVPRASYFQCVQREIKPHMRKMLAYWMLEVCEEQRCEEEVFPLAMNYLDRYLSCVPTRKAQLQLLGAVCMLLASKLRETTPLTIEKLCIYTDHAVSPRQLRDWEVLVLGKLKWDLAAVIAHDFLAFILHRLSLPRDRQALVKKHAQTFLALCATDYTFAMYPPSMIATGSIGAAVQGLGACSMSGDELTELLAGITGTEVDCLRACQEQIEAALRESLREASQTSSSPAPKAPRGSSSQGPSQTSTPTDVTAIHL

SMILES: CC(C)c1nn(-c2c(Cl)cccc2Cl)c2nc(Cc3ccc(CN4CCCC4)c(O)c3)[nH]c(=O)c12 [Compound P, 1-(2,6-dichlorophenyl)-6-(3-hydroxy-4-pyrrolidinomethyl-phenyl)methyl-3-isopropyl-pyrazolo[3,4-d]pyrimidin-4-one]
- LCK ± CI (95%) (Td: 2.1 d) ([1]; 15 [14] mg/kg po bidx10): 0.20 ± 0.16 and 0.20
- Toxic Mortality ([1]; 15 [14] mg/kg po bidx10, N=10): 0
- Max % TGI (d) ([1]; 15 [14] mg/kg po bidx10, day 10): 34 (10) %
- Max % BW Loss (d) ([1]; 15 [14 free base] mg/kg po bidx10, HCl salt, day 6): 0 (6) %
- LCK ± CI (95%) (Td: 2.1 d) ([1]; 30 [28] mg/kg po bidx10): 0.44 ± 0.19 and 0.44
- Toxic Mortality ([1]; 30 [28] mg/kg po bidx10, N=10): 0
- Max % BW Loss (d) [1, 10]: 0.1 (10) %
- Max % TGI (d) [1, 10]: 54 (10) %
- LCK ± CI (95%) (Td: 2.1 d) ([1]; 50 [47] mg/kg po bidx10): 1.06 ± 0.48 and 1.06
- Toxic Mortality ([1]; 50 [47] mg/kg po bidx10, N=10): 0
- Max % TGI (d) ([1]; 50 [47] mg/kg po bidx10, day 13): 81 (13) %
- Max % BW Loss (d) ([1]; 50 [47] mg/kg po bidx10, day 15): 4.7 (15) %
- permeability in a PAMPA assay [2]: about 57%
- solubility [3]: ~210 µM (≈ 108 µg/mL)
- IC50 [4]: 0.016 to 1.6 µM
- LCK ± CI (95%) (Td: 1.7 d) ([5]; 40 [37] mg/kg po qdx10): 0.34 ± 0.21 and 0.34
- Toxic Mortality ([5]; 40 [37] mg/kg po qdx10, N=10): 0
- Max % TGI (d) ([5]; 40 [37] mg/kg po qdx10, day 11): 46.2 (11) %
- LCK ± CI (95%) (Td: 1.7 d) ([5]; 70 [65] mg/kg po qdx10): 0.75 ± 0.46 and 0.75
- Toxic Mortality ([5]; 70 [65] mg/kg po qdx10, N=10): 0
- Max % TGI (d) ([5]; 70 [65] mg/kg po qdx10, day 11): 61.1 (11) %
- LCK ± CI (95%) (Td: 1.7 d) ([5]; 100 [93] mg/kg po qdx9): 1.78 ± 0.56 and 1.78
- Toxic Mortality ([5]; 100 [93] mg/kg po qdx9): 1/10
- Max % TGI (d) ([5]; 100 [93] mg/kg po qdx9, day 11): 83.9 (11) %
- LCK ± CI (95%) (Td: 2.6 d) (H460 NSCLC; H460, 40 [37] mg/kg po qdx10): 0.22 ± 0.12 and 0.22
- Toxic Mortality (H460 NSCLC; H460, 40 [37] mg/kg po qdx10): 0
- Max % TGI (d) (H460 NSCLC; H460, 40 [37] mg/kg po qdx10): 29.6 (13) %
- LCK ± CI (95%) (Td: 2.6 d) (H460 NSCLC; H460, 70 [65] mg/kg po qdx10): 0.26 ± 0.12 and 0.26
- Toxic Mortality (H460 NSCLC; H460, 70 [65] mg/kg po qdx10): 0
- Max % TGI (d) (H460 NSCLC; H460, 70 [65] mg/kg po qdx10): 33.9 (13) %
- LCK ± CI (95%) (Td: 2.6 d) (H460 NSCLC; H460, 100 [93] mg/kg po qdx10): 0.54 ± 0.17 and 0.48 and 0.54
- Toxic Mortality (H460 NSCLC; H460, 100 [93] mg/kg po qdx10): 0
- Max % TGI (d) (H460 NSCLC; H460, 100 [93] mg/kg po qdx10): 48.7 (13) %
- Max % BW Loss (d) (H460 NSCLC; mouse, in vivo, po): 1.0 (8) % and 0% and 7.4 (13) %
- LCK ± CI (95%) (Td: 6.8 d) ([6]; HCT116, 40 [37] mg/kg po qdx10): 0.23 ± 0.11 and 0.23
- Max % TGI (d) ([6]; HCT116, 40 [37] mg/kg po qdx10, day 20): 36.2 (20) %
- LCK ± CI (95%) (Td: 6.8 d) ([6]; HCT116, 70 [65] mg/kg po qdx10): 0.41 ± 0.22 and 0.41
- Max % TGI (d) ([6]; HCT116, 70 [65] mg/kg po qdx10, day 32): 50.2 (32) %
- LCK ± CI (95%) (Td: 6.8 d) [6, 11]: 0.38 ± 0.13 and 0.38
- Toxic Mortality [6, 11]: 1/10
- Max % TGI (d) ([6]; HCT116, 100 [93] mg/kg po qdx10, day 16): 60.1 (16) %
- Max % BW Loss (d) ([6]; mouse, in vivo, po): 17.3 (16) %

SMILES: COc1ccc(F)c(F)c1C(=O)c1cnc(NC2CCN(S(C)(=O)=O)CC2)nc1N [Compound R547]
- IC50 (CDK6): ~0.01 µM
- IC50 ([7]; A2780 cells): ~1 µM
- IC50 ([7]; Colo205 cells): ~0.5 µM
- IC50 ([7]; HCT116 cells): ~0.3 µM
- IC50 ([7]; MDA-MB-468 cells): ~0.3 µM
- IC50 ([7]; RPMI8226 cells): ~0.5 µM
- IC50 ([7]; Sk-mel-28 cells): ~0.3 µM
- LCK ± CI (95%) (Td: 1.7 d) ([5]; 100 mg/kg po qdx1): 1.05 ± 0.56
- Max % BW Loss (d) ([5]; 100 mg/kg po qdx1 (planned qdx10), day 9): 7.5 (9) %
- Max % TGI (d) ([5]; 100 mg/kg po qdx1, day 11): 68.5 (11) %
- LCK ± CI (95%) (Td: 2.6 d) (H460 NSCLC; H460, 40 mg/kg po q2dx5): 0.48 ± 0.20 and 0.48
- Max % BW Loss (d) (H460 NSCLC; H460, 40 mg/kg po q2dx5, day 8): 1.3 (8) %
- Max % TGI (d) (H460 NSCLC; H460, 40 mg/kg po q2dx5): 47.5 (13) %
- LCK ± CI (95%) (Td: 6.8 d) ([6]; HCT116, 100 mg/kg po qdx10 (R547 suspension)): 0.70 ± 0.28
- Max % BW Loss (d) ([6]; HCT116, 100 mg/kg po qdx10 (R547 suspension), day 12): 14.5 (12) %
- Max % TGI (d) ([6]; HCT116, 100 mg/kg po qdx10 (R547 suspension), day 16): 72.8 (16) %
- IC50 ([8]; A2780 cells): ~0.1 µM
- IC50 ([8]; Colo205 cells): ~0.1 µM
- IC50 ([8]; HCT116 cells): ~0.1 µM
- IC50 ([8]; MDA-MB-435 cells): ~0.3 µM
- IC50 ([8]; RPMI8226 cells): ~0.3 µM
- IC50 ([8]; Sk-mel-28 cells): ~0.1 µM
- IC50 ([9]; A549 cells): ~0.03 µM
- IC50 ([9]; A2780 cells): ~0.01 µM
- IC50 ([9]; Colo205 cells): ~0.05 µM
- IC50 ([9]; HCT116 cells): ~0.1 µM
- IC50 ([9]; MDA-MB-435 cells): ~0.1 µM
- IC50 ([9]; MDA-MB-453 cells): ~0.1 µM
- IC50 ([9]; RPMI8226 cells): ~0.05 µM
- IC50 ([9]; Raji cells): ~0.1 µM

SMILES: O=P1(N(CCCl)CCCl)NCCCO1 (stereo not shown) [Cytoxan, cyclophosphamide]
- LCK ± CI (95%) (Td: 2.1 d) ([1]; 100 mg/kg ip q2dx5): 3.56 ± 0.43 and 3.56
- Cure ([1]; 100 mg/kg ip q2dx5, N=10): 0
- Toxic Mortality ([1]; 100 mg/kg ip q2dx5, N=10): 0
- Max % BW Loss (d) ([1]; 100 mg/kg ip q2dx5, day 10): 5.9 (10) %
- Max % TGI (d) ([1]; 100 mg/kg ip q2dx5, day 13): 98 (13) %
- CR ([1]; 100 mg/kg ip q2dx5, mice with complete regression, N=10): 5
- PR ([1]; 100 mg/kg ip q2dx5, mice with partial regression, N=10): 5
